Experiments:
Assay type in all cases: cell-based
[1] = test system: primary human fibroblasts derived from IPF patients (LL29 cells), α-smooth muscle actin (αSMA); assay: Inhibition of the fibrotic process: TGF-β1-treated primary human fibroblasts from IPF patients, αSMA staining; settings: Fibroblast, 96 h, LL29 fibroblasts from IPF patients, TGF-β1 20 ng/mL, 4 days, inhibition of fibrotic process
From the text: Representative compounds were screened using primary human fibroblasts (derived from IPF patients) treated with TGF-β1 to determine their ability to inhibit the fibrotic process.
Primary human fibroblasts derived from IPF patients (LL29 cells) [^1Xiaoqiu Liu, et. al., “Fibrotic Lung Fibroblasts Show Blunted Inhibition by cAMP Due to Deficient cAMP Response Element-Binding Protein Phosphorylation”, Journal of Pharmacology and Experimental Therapeutics (2005), 315(2), 678-687; ^2Watts, K. L., et. al., “RhoA signaling modulates cyclin D1 expression in human lung fibroblasts; implications for idiopathic pulmonary fibrosis”, Respiratory Research (2006), 7(1), 88] were obtained from American Type Culture Collection (ATCC) and expanded in F12 medium supplemented with 15% Fetal Bovine Serum and Penicillin/Streptomycin.
Each compound was dissolved in DMSO as a 10 mM stock and used to prepare compound source plates. Serial dilution (1:2, 11-point dose-response curves from 10 μM to 1.87 nM) and compound transfer was performed using the ECHO 550 (Labcyte, Sunnyvale, Calif.) into 384-well clear bottom assay plates (Greiner Bio-One) with appropriate DMSO backfill for a final DMSO concentration of 0.1%. LL29 cells are plated at 1,500 cells/well in 80 μL/well F12 medium supplemented with 1% Fetal Bovine Serum. One hour after addition of the cells, TGF-β1 (Peprotech; 20 ng/mL) was added to the plates to induce fibrosis (ref. 1 and 2 above). Wells treated with TGF-β1 and containing DMSO were used as controls. Cells were incubated at 37° C. and 5% CO2 for 4 days. Following incubation for 4 days, SYTOX green nucleic acid stain (Life Technologies [Thermo Fisher Scientific]) was added to the wells at a final concentration of 1 μM and incubated at room temperature for 30 min. Cells were then fixed using 4% formaldehyde (Electron Microscopy Sciences), washed 3 times with PBS followed by blocking and permeabilization using 3% Bovine Serum Albumin (BSA; Sigma) and 0.3% Triton X-100 (Sigma) in PBS. Cells were then stained with antibody specific to α-smooth muscle actin (αSMA; Abcam) (ref. 1 and 2 above) in 3% Bovine Serum Albumin (BSA; Sigma) and 0.3% Triton X-100 (Sigma) in PBS, and incubated overnight at 4° C. Cells were then washed 3 times with PBS, followed by incubation with Alexa Flor-647 conjugated secondary antibody (Life Technologies [Thermo Fisher Scientific]) and DAPI at room temperature for 1 hour. Cells were then washed 3 times with PBS and plates were sealed for imaging. αSMA staining was imaged by excitation at 630 nm and emission at 665 nm and quantified using the Compartmental Analysis program on the CellInsight CX5 (Thermo Scientific). Dead or apoptotic cells were excluded from analysis based on positive SYTOX green staining. % of total cells positive for αSMA were counted in each well and normalized to the average of 11 wells treated with TGF-β1 on the same plate using Dotmatics' Studies Software. The normalized averages (fold change over untreated) of 3 replicate wells for each compound concentration were used to create dose-responses curves and EC50 values were calculated using non-linear regression curve fit in the Dotmatics' Studies Software. For EC50 of >10 μM, the percent inhibition at 10 μM is provided.

[2] = test system: Wnt activity (Sp5-Luc reporter, SW480 colon carcinoma cells); assay: Screening assay for Wnt activity: Sp5-Luc reporter gene assay in SW480 cells; settings: Homo sapiens, overnight incubation, 10-point dose-response from 10 μM
From the text: The screening assay for Wnt activity is described as follows. Reporter cell lines can be generated by stably transducing cancer cell lines (e.g., colon cancer) or primary cells (e.g., IEC-6 intestinal cells) with a lentiviral construct that includes a Wnt-responsive promoter driving expression of the firefly luciferase gene.
SW480 colon carcinoma cells were transduced with a lentiviral vector expressing luciferase with a human Sp5 promoter consisting of a sequence of eight TCF/LEF binding sites. SW480 cells stably expressing the Sp5-Luc reporter gene and a hygromycin resistance gene were selected by treatment with 150 μg/mL of hygromycin for 7 days. These stably transduced SW480 cells were expanded in cell culture and used for all further screening activities. Each compound was dissolved in DMSO as a 10 mM stock and used to prepare compound source plates. Serial dilution (1:3, 10-point dose-response curves starting from 10 μM) and compound transfer was performed using the ECHO 550 (Labcyte, Sunnyvale, Calif.) into 384-well white solid bottom assay plates (Greiner Bio-One) with appropriate DMSO backfill for a final DMSO concentration of 0.1%. For Sp5-Luc reporter gene assays, the cells were plated at 4,000 cells/well in 384-well plates with medium containing 1% fetal bovine serum and incubated overnight at 37° C. and 5% CO2. Following incubation, 20 μl of BrightGlo luminescence reagent (Promega) was added to each well of the 384-well assay plates. The plates were placed on an orbital shaker for 2 min and then luminescence was quantified using the Envision (Perkin Elmer) plate reader. Readings were normalized to DMSO only treated cells, and normalized activities were utilized for EC50 calculations using the dose-response log (inhibitor) vs. response -variable slope (four parameters) nonlinear regression feature available in GraphPad Prism 5.0 (or Dotmatics). For EC50 of >10 μM, the percent inhibition at 10 μM is provided.

[3] = test system: IL-6 (THP-1 cells); assay: Inhibition of IL-6 in LPS-stimulated THP-1 monocytes (HTRF); settings: Homo sapiens, LPS 500 ng/mL, IL-6 by HTRF
Experimental: Human monocyte cell line (THP-1 cells; Catalog # TIB-202, ATCC, Manassas, Va.) were cultured in Roswell Park Memorial Institute (RPMI) 1640 Medium (Catalog #21870-100, Buffalo, N.Y.) with 1% L-glutamine, 1% HEPES, 1% Sodium Pyruvate, 2% Sodium Bicarbonate supplemented with 100 units/mL penicillin, 50 μg/mL streptomycin, 2-mercaptoethanol (0.05 mM) [basal medium] and 10% fetal bovine serum (Catalog #16140089, Life Technologies, Carlsbad, Calif.) at 37° C. and 5% CO2.
THP-1 cells were cultured in basal media with 1% FBS for 24 hours before the start of the assay. Each compound was dissolved in DMSO as a 10 mM stock and used to prepare compound source plates. Serial dilution (1:3, 10-point dose-response curves starting from 10 μM) and compound transfer was performed using the ECHO 550 (Labcyte, Sunnyvale, Calif.) into 384-well white low volume assay plates (Greiner Bio-One) with appropriate DMSO backfill for a final DMSO concentration of 0.1%. THP-1 cells were plated at 5000 cells/well in the 384-well plates and incubated at 37° C. for 2 h. 500 ng/mL of LPS was added after 2 hours and cells were incubated for another 22 hours at 37° C. Plates were spun in a centrifuge for 1 minute at […] and a mixture of anti-IL6 XL665, and anti-IL6 Cryptate diluted in reconstitution buffer (Cisbio Inc.) was added to each well. Following incubation for 3 hrs at room temperature, Homogeneous Time-Resolved Fluorescence (HTRF) was measured using the Envision (Perkin Elmer) at 665 nm and […]. The ratio of fluorescence at 665 nm to 620 nm was used as a readout for IL6 quantification. All samples were processed in duplicate. Readings were normalized to DMSO treated cells and normalized activities were utilized for EC50 calculations using the dose-response log (inhibitor) vs. response -variable slope (four parameters) nonlinear regression feature available in GraphPad Prism 5.0 (or Dotmatics). For EC50 of >10 μM, the percent inhibition at 10 μM is provided.

[4] = test system: SW480 colon cancer cells; assay: Cell viability assay (CellTiter-Blue), four days; settings: Homo sapiens, 96 h, CellTiter-Blue cell viability
Experimental: Representative compounds were screened using the following assay procedure to assess the effect on cell viability as described below.
Each compound was dissolved in DMSO as a 10 mM stock and used to prepare compound source plates. Serial dilution (1:3, 8-point dose-response curves from 10 μM to 0.0045 μM) and compound transfer was performed using the ECHO 550 (Labcyte, Sunnyvale, Calif.) into 96-well clear bottom, black-walled plates (Corning-Costar).
Approximately 2×10^3 SW480 colon cancer cells were seeded into each well and allowed to incubate in the presence or absence of compound for four days at 37° C./5% CO2. Eight replicates of DMSO-treated cells served as controls and cells treated with compound were performed in duplicate.
After incubation, 20 μL of CellTiter-Blue (Promega) was added to each well allowed to incubate for approximately 3 hours. This reagent was a buffered solution which contains resazurin, metabolically active cells were able to reduce rezarurin (blue) into resorufin (pink) which was highly fluorescent. This measured fluorescence was used as a readout for cell viability.
After incubation, the plates were read at Ex 560 nm Em 590 nm (Cytation 3, BioTek). Dose-response curves were generated and EC50 concentration values were calculated using non-linear regression curve fit in the GraphPad Prism (San Diego, Calif.) or Dotmatics' Studies Software (Bishops Stortford, UK). For EC50 of >10 μM, the percent inhibition at 10 μM is provided.

EC50 [2] [nM]	EC50 [3] [nM]	EC50 [4] [nM]	SMILES	EC50 [1] [nM]
4860	131	3320	c1ccc(CNCc2cncc(-c3ccc4[nH]nc(-c5nc6c(-c7cccnc7)ccnc6[nH]5)c4n3)c2)cc1 [Compound 108, N-Benzyl-1-(5-(3-(7-(pyridin-3-yl)-3H-imidazo[4,5-b]pyridin-2-yl)-1H-pyrazolo[4,3-b]pyridin-5-yl)pyridin-3-yl)methanamine]	8890
3290	9180	3560	Oc1cncc(-c2ccc3[nH]nc(-c4nc5c(N6CCCCC6)ccnc5[nH]4)c3n2)c1 [Compound 613, 5-(3-(7-(Piperidin-1-yl)-3H-imidazo[4,5-b]pyridin-2-yl)-1H-pyrazolo[4,3-b]pyridin-5-yl)pyridin-3-ol]	2440
4140	5420	832	FC1(F)CCN(Cc2cncc(-c3ccc4[nH]nc(-c5nc6c(N7CCCCC7)ccnc6[nH]5)c4n3)c2)C1 [Compound 194, 5-(5-((3,3-Difluoropyrrolidin-1-yl)methyl)pyridin-3-yl)-3-(7-(piperidin-1-yl)-3H-imidazo[4,5-b]pyridin-2-yl)-1H-pyrazolo[4,3-b]pyridine]	1190
2720	2620	2590	c1cc(-c2ccoc2)c2nc(-c3n[nH]c4ccc(-c5cncc(CNCC6CCCC6)c5)nc34)[nH]c2n1 [Compound 333, 1-Cyclopentyl-N-((5-(3-(7-(furan-3-yl)-3H-imidazo[4,5-b]pyridin-2-yl)-1H-pyrazolo[4,3-b]pyridin-5-yl)pyridin-3-yl)methyl)methanamine]	1420
1810	1500	1160	CN1CCN(c2ccnc3[nH]c(-c4n[nH]c5ccc(-c6cncc(OCc7ccccc7)c6)nc45)nc23)CC1 [Compound 646, 5-(5-(Benzyloxy)pyridin-3-yl)-3-(7-(4-methylpiperazin-1-yl)-3H-imidazo [4,5-b]pyridin-2-yl)-1H-pyrazolo[4,3-b]pyridine]	1710
2660	4770	2220	CN(C)CCNc1cc(F)cc(-c2ccnc3[nH]c(-c4n[nH]c5ccc(-c6cncc(OCc7ccccc7)c6)nc45)nc23)c1 [Compound 790, N^1-(3-(2-(5-(5-(Benzyloxy)pyridin-3-yl)-1H-pyrazolo[4,3-b]pyridin-3-yl)-3H-imidazo[4,5-b]pyridin-7-yl)-5-fluorophenyl)-N^2,N^2-dimethylethane-1,2-diamine]	2500
1970	4260	1400	c1ccc(CNCc2cncc(-c3ccc4[nH]nc(-c5nc6c(-c7ccsc7)ccnc6[nH]5)c4n3)c2)cc1 [Compound 304, N-Benzyl-1-(5-(3-(7-(thiophen-3-yl)-3H-imidazo[4,5-b]pyridin-2-yl)-1H-pyrazolo[4,3-b]pyridin-5-yl)pyridin-3-yl)methanamine]	1340
687	115	2290	c1ccc(-c2ccc3[nH]nc(-c4nc5cccnc5[nH]4)c3n2)nc1 [Compound 280, 3-(3H-Imidazo[4,5-b]pyridin-2-yl)-5-(pyridin-2-yl)-1H-pyrazolo[4,3-b]pyridine]	3880
1120	5760	2640	Fc1ccccc1-c1ccnc2[nH]c(-c3n[nH]c4ccc(-c5cncc(CNCC6CCCC6)c5)nc34)nc12 [Compound 81, 1-Cyclopentyl-N-((5-(3-(7-(2-fluorophenyl)-3H-imidazo[4,5-b]pyridin-2-yl)-1H-pyrazolo[4,3-b]pyridin-5-yl)pyridin-3-yl)methyl)methanamine]	1600

SMILES	EC50 [2] [nM]	EC50 [3] [nM]	EC50 [4] [nM]	EC50 [1] [nM]
Cc1ccc(-c2ccnc3[nH]c(-c4n[nH]c5ccc(C6=CCNCC6)nc45)nc23)s1 [Compound 730, 3-(7-(5-Methylthiophen-2-yl)-3H-imidazo[4,5-b]pyridin-2-yl)-5-(1,2,3,6-tetrahydropyridin-4-yl)-1H-pyrazolo[4,3-b]pyridine]	3160	558	3480	489
